Assay [1] can be described thus: ORAC assay adapted for the linoleate microemulsion system (relative ORAC, synergy). As to the method: Synergistic effects of bioactive compounds combined with alpha-tocopherol. […] An OBS microplate was prepared with duplicate wells of Trolox solution standards (20 μL; 500, 250, 125, 62.5, or 31.25 μM) and triplicate wells of samples diluted in phosphate buffer (20 μL). The perimeter wells were not used for kinetic studies to avoid potential edge effects. The oxidation substrate, methyl linoleate microemulsion (200 μL), was then added. […] A control well containing 200 μL of microemulsion and 40 μL of phosphate buffer was used to normalize the fluorescence reading. The reaction kinetics were monitored at 37° C. for 2 h, with readings every 2 min, by a Synergy HT microplate fluorescent reader (Biotek Instruments Inc.). The microplate reader was fitted with an excitation filter at 485 nm, an emission filter of 590 nm, and an oxygen sensor biosystem, and the plate was shaken for 20 s at low intensity before each reading to ensure sufficient mixing. After normalization, the fluorescence data were converted to the oxygen concentration at each point of the reaction. The ORAC values of samples were determined as previously described ([…]. et al., Journal of Agricultural and Food Chemistry 2009, 57, 3409-3414).

Another assay relates to human adipocytes. Briefly: Glucose uptake (3H-2-deoxyglucose) in adipocytes. The note with it: 100 nM insulin (positive control). Format: cell-based. As to the method: (§1) Glucose uptake. […] Briefly, primary human subcutaneous adipocytes or primary human myoblasts were differentiated in 96-well microplates. […] All samples, including the positive and negative controls, were tested in triplicate. After a 2-h incubation at 37° C. and 5% CO2, the cells were washed with PBS and lysed. The cell lysate was mixed with scintillation fluid and radioactivity of each well was measured as counts per minute (CPM).

Assay [2] deals with human skeletal muscle cells. In words: Glucose uptake (3H-2-deoxyglucose) in skeletal muscle cells. Format: cell-based. The note with it: 100 nM insulin (positive control). As to the method: as §1

Consider `O=C1O[C@H]([C@@H](O)CO)C(O)=C1O` [ascorbic acid], for which, in assay [1], the “Antioxidant effect in combination with α-tocopherol” value (“Antioxidant effect in combination” below) is reported as “additive”.

For `Oc1cc(O)c2c(c1)O[C@H](c1ccc(O)c(O)c1)[C@@H](O)C2` [catechin, Catechin], the “Antioxidant effect in combination” value in assay [1] is given as “synergistic”.

In the case of `O=C(/C=C/c1ccc(O)c(O)c1)O[C@@H]1C[C@](O)(C(=O)O)C[C@@H](O)[C@H]1O` [chlorogenic acid], the “Antioxidant effect in combination” value in assay [1] was “synergistic”.

Consider insulin, for which the “Increase in glucose uptake” value was 1.6 fold with human adipocytes and 2.06 fold in assay [2].

Source of the values: US20130261136A1, “COFFEE EXTRACTS AS INGREDIENTS OF FOODS, DRUGS, COSMETICS, DIETARY SUPPLEMENTS, AND BIOLOGICS” (priority 2010, published 2013).
